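Five compound concentrations were applied to cells in 96-well plates for 48 hours; endpoints were derived by simple linear interpolation of the resulting dose-response curve. GI50 = concentration required for 50% inhibition of growth.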 Activity calls are given as the source filed them. No stated cut-off is given here; in the data, active = GI50 up to about 1.1 µM and inactive = higher.
How the values were obtained:
Assay in all cases: NCI anticancer screen, dose series, 48 h
786-0 = test system: 786-0
A498 = test system: A498
A549 = test system: A549
ACHN = test system: ACHN
BT-549 = test system: BT-549
CAKI-1 = test system: CAKI-1
CCRF-CEM = test system: CCRF-CEM
COLO 205 = test system: COLO 205
DU-145 = test system: DU-145
EKVX = test system: EKVX
HCT-116 = test system: HCT-116
HCT-15 = test system: HCT-15
HL-60 = test system: HL-60
HOP-62 = test system: HOP-62
HT-29 = test system: HT-29
Hs-578T = test system: Hs-578T
IGROV-1 = test system: IGROV-1
K562 = test system: K562
KM12 = test system: KM12
LOX IMVI = test system: LOX IMVI
M14 = test system: M14
MCF7 = test system: MCF7
MDA-MB-231 = test system: MDA-MB-231
MDA-MB-435 = test system: MDA-MB-435
MDA-N = test system: MDA-N
MOLT-4 = test system: MOLT-4
NCI-H226 = test system: NCI-H226
NCI-H23 = test system: NCI-H23
NCI-H460 = test system: NCI-H460
NCI-H522 = test system: NCI-H522
NCI/ADR-RES = test system: NCI/ADR-RES
OVCAR-3 = test system: OVCAR-3
OVCAR-4 = test system: OVCAR-4
OVCAR-5 = test system: OVCAR-5
OVCAR-8 = test system: OVCAR-8
PC-3 = test system: PC-3
RPMI-8226 = test system: RPMI-8226
SF-268 = test system: SF-268
SF-295 = test system: SF-295
SF-539 = test system: SF-539
SK-MEL-28 = test system: SK-MEL-28
SK-MEL-2 = test system: SK-MEL-2
SK-MEL-5 = test system: SK-MEL-5
SK-OV-3 = test system: SK-OV-3
SN12C = test system: SN12C
SNB-19 = test system: SNB-19
SNB-75 = test system: SNB-75
SR = test system: SR
SW-620 = test system: SW-620
T47D = test system: T47D
TK-10 = test system: TK-10
U-251 = test system: U-251
UACC-257 = test system: UACC-257
UACC-62 = test system: UACC-62
UO-31 = test system: UO-31
HCC 2998 = test system: HCC 2998
HOP-92 = test system: HOP-92
Malme-3M = test system: Malme-3M

For `CC(=O)Nc1ccc2nncnc2c1`, the GI50 (786-0) was > 100 µM (inactive), the GI50 (A498) was > 100 µM (inactive) and the GI50 (A549) was > 100 µM (inactive). The GI50 (ACHN) was > 100 µM (inactive), the GI50 (BT-549) was > 100 µM (inactive) and the GI50 (CAKI-1) was > 100 µM (inactive). For the same compound, the GI50 (CCRF-CEM) was > 100 µM (inactive), the GI50 (COLO 205) was > 100 µM (inactive) and the GI50 (DU-145) was > 100 µM (inactive). The GI50 (EKVX) was > 100 µM (inactive), the GI50 (HCT-116) was > 100 µM (inactive) and the GI50 (HCT-15) was greater than 100 µM. For the same compound, the GI50 (HL-60) was > 100 µM (inactive), the GI50 (HOP-62) was > 100 µM (inactive) and the GI50 (HT-29) was > 100 µM (inactive). For the same compound, the GI50 (Hs-578T) was 77.6 µM (inactive), the GI50 (IGROV-1) was > 100 µM (inactive) and the GI50 (K562) was > 100 µM (inactive). The GI50 (KM12) was > 100 µM (inactive), the GI50 (LOX IMVI) was > 100 µM (inactive) and the GI50 (M14) was > 100 µM (inactive). For the same compound, the GI50 (MCF7) was > 100 µM (inactive), the GI50 (MDA-MB-231) was > 100 µM (inactive) and the GI50 (MDA-MB-435) was > 100 µM (inactive). For the same compound, the GI50 (MDA-N) was > 100 µM (inactive), the GI50 (MOLT-4) was > 100 µM (inactive) and the GI50 (NCI-H226) was > 100 µM (inactive). For the same compound, the GI50 (NCI-H23) was > 100 µM (inactive), the GI50 (NCI-H460) was > 100 µM (inactive) and the GI50 (NCI-H522) was > 100 µM (inactive). For the same compound, the GI50 (NCI/ADR-RES) was > 100 µM (inactive), the GI50 (OVCAR-3) was > 100 µM (inactive) and the GI50 (OVCAR-4) was > 100 µM (inactive). For the same compound, the GI50 (OVCAR-5) was > 100 µM (inactive), the GI50 (OVCAR-8) was > 10 µM (inactive) and the GI50 (PC-3) was > 100 µM (inactive). For the same compound, the GI50 (RPMI-8226) was > 100 µM (inactive), the GI50 (SF-268) was > 100 µM (inactive) and the GI50 (SF-295) was > 100 µM (inactive). For the same compound, the GI50 (SF-539) was > 100 µM (inactive), the GI50 (SK-MEL-28) was > 100 µM (inactive) and the GI50 (SK-MEL-2) was > 100 µM (inactive). For the same compound, the GI50 (SK-MEL-5) was > 100 µM (inactive), the GI50 (SK-OV-3) was > 100 µM (inactive) and the GI50 (SN12C) was > 100 µM (inactive). For the same compound, the GI50 (SNB-19) was > 100 µM (inactive), the GI50 (SNB-75) was > 100 µM (inactive) and the GI50 (SR) was > 100 µM (inactive). For the same compound, the GI50 (SW-620) was > 100 µM (inactive), the GI50 (T47D) was > 100 µM (inactive) and the GI50 (TK-10) was > 100 µM (inactive). For the same compound, the GI50 (U-251) was > 100 µM (inactive), the GI50 (UACC-257) was > 100 µM (inactive) and the GI50 (UACC-62) was > 100 µM (inactive). The GI50 (UO-31) was > 100 µM (inactive).
In the case of `Nc1ncnc2c1ncc(=O)n2C1CC(O)C(CO)O1` (configuration not stated), the GI50 (786-0) is reported as > 100 µM (inactive), the GI50 (A498) is reported as > 100 µM (inactive) and the GI50 (A549) is reported as > 100 µM (inactive). The GI50 (ACHN) was > 100 µM (inactive), the GI50 (BT-549) was > 100 µM (inactive) and the GI50 (CAKI-1) was > 100 µM (inactive). The GI50 (CCRF-CEM) was > 100 µM (inactive), the GI50 (COLO 205) was > 100 µM (inactive) and the GI50 (DU-145) was > 100 µM (inactive). For the same compound, the GI50 (EKVX) was > 100 µM (inactive), the GI50 (HCC 2998) was > 100 µM (inactive) and the GI50 (HCT-116) was > 100 µM (inactive). For the same compound, the GI50 (HCT-15) was greater than 100 µM, the GI50 (HOP-62) was > 100 µM (inactive) and the GI50 (HOP-92) was > 100 µM (inactive). For the same compound, the GI50 (HT-29) was > 100 µM (inactive), the GI50 (Hs-578T) was > 100 µM (inactive) and the GI50 (IGROV-1) was > 100 µM (inactive). For the same compound, the GI50 (K562) was > 100 µM (inactive), the GI50 (KM12) was > 100 µM (inactive) and the GI50 (LOX IMVI) was > 100 µM (inactive). For the same compound, the GI50 (M14) was > 100 µM (inactive), the GI50 (MCF7) was > 100 µM (inactive) and the GI50 (MDA-MB-231) was > 100 µM (inactive). The GI50 (MDA-MB-435) was > 100 µM (inactive), the GI50 (MDA-N) was > 100 µM (inactive) and the GI50 (MOLT-4) was > 100 µM (inactive). The GI50 (Malme-3M) was > 100 µM (inactive), the GI50 (NCI-H226) was > 100 µM (inactive) and the GI50 (NCI-H23) was > 100 µM (inactive). The GI50 (NCI-H460) was > 100 µM (inactive), the GI50 (NCI-H522) was > 100 µM (inactive) and the GI50 (NCI/ADR-RES) was > 100 µM (inactive). For the same compound, the GI50 (OVCAR-3) was > 100 µM (inactive), the GI50 (OVCAR-4) was > 100 µM (inactive) and the GI50 (OVCAR-5) was > 100 µM (inactive). For the same compound, the GI50 (OVCAR-8) was > 100 µM (inactive), the GI50 (PC-3) was > 100 µM (inactive) and the GI50 (RPMI-8226) was > 100 µM (inactive). The GI50 (SF-268) was > 100 µM (inactive), the GI50 (SF-295) was 65.6 µM (inactive) and the GI50 (SF-539) was > 100 µM (inactive). For the same compound, the GI50 (SK-MEL-28) was > 100 µM (inactive), the GI50 (SK-MEL-2) was > 100 µM (inactive) and the GI50 (SK-MEL-5) was > 100 µM (inactive). For the same compound, the GI50 (SK-OV-3) was > 100 µM (inactive), the GI50 (SN12C) was > 100 µM (inactive) and the GI50 (SNB-19) was > 100 µM (inactive). For the same compound, the GI50 (SNB-75) was > 100 µM (inactive), the GI50 (SR) was > 100 µM (inactive) and the GI50 (SW-620) was > 100 µM (inactive). For the same compound, the GI50 (T47D) was > 100 µM (inactive), the GI50 (TK-10) was > 100 µM (inactive) and the GI50 (U-251) was > 100 µM (inactive). The GI50 (UACC-257) was > 100 µM (inactive), the GI50 (UACC-62) was > 100 µM (inactive) and the GI50 (UO-31) was > 100 µM (inactive).
